Laboratory results as given in the supplement of paper PMC10307832.

What was measured:
Assay in all cases: relative viability (nuclei count vs DMSO), 5 days (fraction); higher = more cells survive
NCI-H727 = system: NCI-H727
Method in brief: (§1)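 Cells from lung cancer lines were seeded into 1536-well plates and, one day later, dosed by pin tool. Treatments were either a single drug or a fixed dose of an anchor drug with five library-drug doses (not always all listed) in √10 steps. After 5 days, nuclei were stained in a one-step fixation (final 0.05% Triton X-100, 1% formaldehyde, 1 ug/ml Hoechst) and counted on 4× images, and relative viability is the treated-to-vehicle nuclei ratio, as the median of duplicate plates.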

BEN = system: BEN
Method in brief: as §1

NCI-H647 = system: NCI-H647
Method in brief: as §1

NCI-H2405 = system: NCI-H2405
Method in brief: as §1

HCC-827 = system: HCC-827
Method in brief: as §1

CAL-12T = system: CAL-12T
Method in brief: as §1

201T = system: 201T
Method in brief: as §1

RERF-LC-KJ = system: RERF-LC-KJ
Method in brief: as §1

LCLC-97TM1 = system: LCLC-97TM1
Method in brief: as §1

NCI-H1944 = system: NCI-H1944
Method in brief: as §1

NCI-H1437 = system: NCI-H1437
Method in brief: as §1

NCI-H322M = system: NCI-H322M
Method in brief: as §1

LCLC-103H = system: LCLC-103H
Method in brief: as §1

NCI-H2228 = system: NCI-H2228
Method in brief: as §1

LXF-289 = system: LXF-289
Method in brief: as §1

NCI-H3122 = system: NCI-H3122
Method in brief: as §1

HCC-44 = system: HCC-44
Method in brief: as §1

NCI-H1650 = system: NCI-H1650
Method in brief: as §1

HOP-62 = system: HOP-62
Method in brief: as §1

NCI-H2087 = system: NCI-H2087
Method in brief: as §1

SK-LU-1 = system: SK-LU-1
Method in brief: as §1

SMILES: C=C1C(=O)O[C@@H](CCCCCCCC)[C@@H]1C(=O)O [C-75] + C[C@@H](Oc1cc(-c2cnn(C3CCNCC3)c2)cnc1N)c1c(Cl)ccc(F)c1Cl [Crizotinib] (partner 1 µM)
- relative viability (NCI-H727; first compound 0.08 µM): 0.825
- relative viability (NCI-H727; first compound 0.253 µM): 1.2
- relative viability (NCI-H727; first compound 0.8 µM): 0.772
- relative viability (NCI-H727; first compound 2.53 µM): 0.57
- relative viability (NCI-H727; first compound 8 µM): 1.11
- relative viability (BEN; first compound 0.08 µM): 0.897
- relative viability (BEN; first compound 0.253 µM): 0.952
- relative viability (BEN; first compound 0.8 µM): 0.921
- relative viability (BEN; first compound 2.53 µM): 0.755
- relative viability (BEN; first compound 8 µM): 0.825
- relative viability (NCI-H647; first compound 0.08 µM): 1.06
- relative viability (NCI-H647; first compound 0.253 µM): 1.05
- relative viability (NCI-H647; first compound 2.53 µM): 0.842
- relative viability (NCI-H647; first compound 8 µM): 0.603
- relative viability (NCI-H2405; first compound 0.08 µM): 0.825
- relative viability (NCI-H2405; first compound 0.253 µM): 0.683
- relative viability (NCI-H2405; first compound 0.8 µM): 0.796
- relative viability (NCI-H2405; first compound 2.53 µM): 0.785
- relative viability (NCI-H2405; first compound 8 µM): 0.868
- relative viability (HCC-827; first compound 0.08 µM): 0.917
- relative viability (HCC-827; first compound 0.253 µM): 0.88
- relative viability (HCC-827; first compound 0.8 µM): 0.872
- relative viability (HCC-827; first compound 2.53 µM): 0.973
- relative viability (HCC-827; first compound 8 µM): 0.946
- relative viability (CAL-12T; first compound 0.08 µM): 0.597
- relative viability (CAL-12T; first compound 0.253 µM): 0.626
- relative viability (CAL-12T; first compound 0.8 µM): 0.586
- relative viability (CAL-12T; first compound 8 µM): 0.849
- relative viability (201T; first compound 0.08 µM): 1.05
- relative viability (201T; first compound 0.253 µM): 1.05
- relative viability (201T; first compound 0.8 µM): 1.01
- relative viability (201T; first compound 2.53 µM): 0.966
- relative viability (201T; first compound 8 µM): 1.05
- relative viability (RERF-LC-KJ; first compound 0.08 µM): 0.881
- relative viability (RERF-LC-KJ; first compound 0.253 µM): 0.846
- relative viability (RERF-LC-KJ; first compound 0.8 µM): 0.815
- relative viability (RERF-LC-KJ; first compound 2.53 µM): 0.704
- relative viability (RERF-LC-KJ; first compound 8 µM): 0.86
- relative viability (LCLC-97TM1; first compound 0.08 µM): 0.274
- relative viability (LCLC-97TM1; first compound 0.253 µM): 0.461
- relative viability (LCLC-97TM1; first compound 0.8 µM): 0.328
- relative viability (LCLC-97TM1; first compound 2.53 µM): 0.253
- relative viability (LCLC-97TM1; first compound 8 µM): 0.29
- relative viability (NCI-H1944; first compound 0.08 µM): 1.06
- relative viability (NCI-H1944; first compound 0.253 µM): 0.998
- relative viability (NCI-H1944; first compound 0.8 µM): 1.05
- relative viability (NCI-H1944; first compound 8 µM): 1.03
- relative viability (NCI-H1437; first compound 0.08 µM): 0.859
- relative viability (NCI-H1437; first compound 0.253 µM): 0.968
- relative viability (NCI-H1437; first compound 0.8 µM): 0.936
- relative viability (NCI-H1437; first compound 2.53 µM): 0.983
- relative viability (NCI-H1437; first compound 8 µM): 0.936
- relative viability (NCI-H322M; first compound 0.08 µM): 0.977
- relative viability (NCI-H322M; first compound 0.253 µM): 1.19
- relative viability (NCI-H322M; first compound 0.8 µM): 0.919
- relative viability (NCI-H322M; first compound 2.53 µM): 0.971
- relative viability (NCI-H322M; first compound 8 µM): 0.973
- relative viability (LCLC-103H; first compound 0.08 µM): 1.08
- relative viability (LCLC-103H; first compound 0.253 µM): 1.03
- relative viability (LCLC-103H; first compound 0.8 µM): 1.05
- relative viability (LCLC-103H; first compound 2.53 µM): 0.899
- relative viability (LCLC-103H; first compound 8 µM): 0.978
- relative viability (NCI-H2228; first compound 0.08 µM): 0.548
- relative viability (NCI-H2228; first compound 0.253 µM): 0.472
- relative viability (NCI-H2228; first compound 0.8 µM): 0.412
- relative viability (NCI-H2228; first compound 2.53 µM): 0.438
- relative viability (NCI-H2228; first compound 8 µM): 0.596
- relative viability (LXF-289; first compound 0.08 µM): 0.795
- relative viability (LXF-289; first compound 0.253 µM): 0.793
- relative viability (LXF-289; first compound 0.8 µM): 0.812
- relative viability (LXF-289; first compound 2.53 µM): 0.739
- relative viability (LXF-289; first compound 8 µM): 0.806
- relative viability (NCI-H3122; first compound 0.08 µM): 0.26
- relative viability (NCI-H3122; first compound 0.253 µM): 0.254
- relative viability (NCI-H3122; first compound 0.8 µM): 0.3
- relative viability (NCI-H3122; first compound 8 µM): 0.269
- relative viability (HCC-44; first compound 0.08 µM): 0.787
- relative viability (HCC-44; first compound 0.253 µM): 0.815
- relative viability (HCC-44; first compound 0.8 µM): 0.795
- relative viability (HCC-44; first compound 2.53 µM): 0.659
- relative viability (HCC-44; first compound 8 µM): 0.719
- relative viability (NCI-H1650; first compound 0.08 µM): 0.961
- relative viability (NCI-H1650; first compound 0.253 µM): 1.1
- relative viability (NCI-H1650; first compound 0.8 µM): 0.972
- relative viability (NCI-H1650; first compound 2.53 µM): 1.12
- relative viability (NCI-H1650; first compound 8 µM): 1.21
- relative viability (HOP-62; first compound 0.08 µM): 0.99
- relative viability (HOP-62; first compound 0.253 µM): 0.849
- relative viability (HOP-62; first compound 0.8 µM): 0.81
- relative viability (HOP-62; first compound 2.53 µM): 0.824
- relative viability (HOP-62; first compound 8 µM): 1
- relative viability (NCI-H2087; first compound 0.08 µM): 0.942
- relative viability (NCI-H2087; first compound 0.253 µM): 0.563
- relative viability (NCI-H2087; first compound 0.8 µM): 0.837
- relative viability (NCI-H2087; first compound 2.53 µM): 0.608
- relative viability (NCI-H2087; first compound 8 µM): 0.711
- relative viability (SK-LU-1; first compound 0.08 µM): 0.801
- relative viability (SK-LU-1; first compound 0.253 µM): 0.987
- relative viability (SK-LU-1; first compound 0.8 µM): 0.883
- relative viability (SK-LU-1; first compound 2.53 µM): 0.907
- relative viability (SK-LU-1; first compound 8 µM): 0.655
